Blank lines part the entries; values can stand above or below the compound they belong to.
Legend:
[1] = mouse plasma and brain levels; type: in vivo; conditions: 10 mg/kg ip 2h
rat pharmacokinetics = type: in vivo
p38 = p38 (Homo sapiens, UniProt Q16539); test: p38 biochemical inhibition / selectivity; conditions: for selectivity over p38: JNK3 vs p38
Sequence of p38 (Q16539 whole entry): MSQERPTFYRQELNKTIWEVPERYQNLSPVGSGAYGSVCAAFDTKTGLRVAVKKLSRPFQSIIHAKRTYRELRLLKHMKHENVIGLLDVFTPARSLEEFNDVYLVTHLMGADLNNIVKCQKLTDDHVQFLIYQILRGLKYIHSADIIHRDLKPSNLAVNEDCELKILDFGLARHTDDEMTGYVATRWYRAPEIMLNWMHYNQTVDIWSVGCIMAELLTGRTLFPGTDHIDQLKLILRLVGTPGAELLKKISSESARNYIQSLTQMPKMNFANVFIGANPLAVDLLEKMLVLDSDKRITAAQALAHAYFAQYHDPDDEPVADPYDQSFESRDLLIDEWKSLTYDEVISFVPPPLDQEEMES

Structure (SMILES): Cc1ccc(-c2cccc3cnc(Nc4ccc(-n5cnc(N6CCOCC6)n5)cc4)nc23)cn1 [9a]
- mouse [plasma] [1]: 2.72 µM

Structure (SMILES): Cc1ncn(-c2ccc(Nc3ncc4cccc(-c5nccs5)c4n3)cc2)n1 [9g]
- PK properties (rat pharmacokinetics; data not shown, species not given): poor

Structure (SMILES): Cn1cc(-c2ccc3cnc(Nc4ccc(-n5cnc(N6CCOCC6)n5)cc4)nc3c2-c2cnn(C)c2)cn1 [14d]
- IC50 (p38): > 20 µM
- selectivity over p38 (p38): > 2200 fold

Second part, the compound after the results:

- selectivity over p38 (p38): > 500 fold
- clearance (rat pharmacokinetics; rat, plasma, iv, 1 mg/kg): 6 mL/min/kg
Structure (SMILES): Cn1cc(-c2ccc3cnc(Nc4ccc(-n5cnc(N6CCOCC6)n5)cc4)nc3c2Cl)cn1 [13a]

- mouse [brain] [1]: 7.2 µM
Structure (SMILES): Cn1cc(-c2ccc3cnc(Nc4ccc(-n5cnc(N6CCOCC6)n5)cc4)nc3c2)cn1 [compound 3]
